According to patent publication US9499590B2, “Antibodies against and methods for producing vaccines for respiratory syncytial virus” (MEDIMMUNE, LLC, priority 2009, dated 2016):
“And” between values parts separate entries of the source, which are not always exact repeats. Identical values can stand only once.

Columns and labels:
Numax™ = assay: Biacore kinetic analysis of F peptides on captured Numax™; assay type: binding; conditions: F peptide 100 nM over captured Numax, HBS-EP
Description: All studies were performed using Sensor Chip CM5 (Biacore AB, Uppsala, Sweden) which contains a carboxymethyl (CM) dextran matrix and a Biacore®3000 surface plasmon resonance (SPR) biosensor (Biacore AB, Uppsala, Sweden).
Numax™ was captured via a high-affinity interaction between the Fc portion of Numax™ and a goat anti-human IgG(Fc) (KPL, Inc., Gaithersburg, Md.). Goat anti-human IgG(Fc) was covalently attached to the CM dextran matrix using amine coupling chemistry. Two anti-human IgG(Fc)-specific surfaces were created. Numax™ was diluted to 10.9 μg/mL with HBS-EP and flowed for 1 min. across one of the anti-human IgG (Fc) surfaces at a flow rate of 5 μL/min. The other anti-human IgG(Fc) surface was used as a reference surface. F peptide was prepared by dilution in HBS-EP (0.01 M Hepes pH 7.4, 0.15 M NaCl, 3 mM EDTA, 0.005% surfactant P20) to a final concentration of 100 nM. F peptide was injected for 1 min. in a serial-flow manner across the reference surface and the Numax™-specific surface. Dissociation of bound F peptide was monitored for 2 min in the presence of HBS-EP. After this dissociation period, Numax™ and F peptide were removed with a 30-sec injection of 10 mM glycine pH 1.7 (Biacore AB, Uppsala, Sweden). Because of the removal of Numax™, it was necessary to create a new Numax™-specific surface prior to the injection of each F peptide.

MEDI-524 Fab = MEDI-524 Fab (Homo sapiens, UniProt P01834+P01857); assay: Isothermal titration calorimetry (ITC) of F peptides with MEDI-524 Fab; assay type: binding; conditions: 18° C., 25 mM His, pH 6.07
Sequence of MEDI-524 Fab (P01857 with tags, fused parts or gaps limits assumed, other chains not shown): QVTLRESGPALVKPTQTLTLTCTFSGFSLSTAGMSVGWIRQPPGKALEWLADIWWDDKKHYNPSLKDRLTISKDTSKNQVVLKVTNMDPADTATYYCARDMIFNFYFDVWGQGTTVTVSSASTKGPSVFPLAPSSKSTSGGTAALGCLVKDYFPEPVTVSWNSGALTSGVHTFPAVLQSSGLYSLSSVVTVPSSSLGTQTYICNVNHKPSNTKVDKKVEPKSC
Excerpt: Isothermal Titration calorimetry assays (ITC) have been described (see, for example, Heerklotz H et al., Biophysical Journal, May 1999). Molecular interactions are defined by stoichiometry and a few thermodynamic parameters. All binding reactions are associated with the absorption or generation of heat. Therefore calorimetry is emerging as a premier tool for the characterisation of interactions of biological macromolecules. ITC is the only method that measures equilibrium constants, enthalpy and entropy in one single experiment. If the experiment is performed at different temperatures the important parameter, the heat capacity change, can be determined. ITC has become a standard method for investigating the binding of ligands to receptor molecules. Accordingly, ligands are mixed with receptors, and the subsequent heats of incorporation (or binding) are measured.
To obtain binding constants for MEDI-524 Mab and MEDI-524 Fab fragments with F peptides constructed from F protein sequences, ITC was performed.
For this set of experiments, […] (1.16 μM-148.4 KDa) of MEDI-524 Mab and 0.088 mg/mL (1.88 μM-46.3 KDa) of MEDI-524 Fab, both in 25 mM His, pH 6.07 were used. On the other hand, 250 μl of lmg/mL of the different peptides dissolved in H2O, were provided by ABC. The peptides were then diluted into the appropriate volume of buffer to give a final concentration of 50 μM. The ITC experiments were run at 18° C. with the macromolecule (Mab or Fab) in the cell, by doing ˜26 injections of 10 μL of peptides, spaced 360 sec with constant stirring. The data fitting was accomplished by subtracting the average value of the few last injections as the buffer and unspecific heat of dilution contributions. […] A note apart is the fact that the observed binding capacity (N) increases with the length of the peptide, indicating possibly an extra conformational factor in the binding event. The entropic contribution: For the peptides SEQ ID NOs.24 and 26, the entropic factor seems to be similar; the extra amino acids at the end of the N-terminal seem not to affect greatly the binding parameters. On the other hand, the elongation at the C-terminal seems to decrease slightly the binding enthalpy, the binding constant, as well as the entropic factor. The binding capacity seems to be increased in the cases where the 30-mer peptides were used (SEQ ID Nos. 25 and 26), when compare to the SEQ ID NO.24 peptide, possibly due to the longer extent of the whole peptides. The binding constant seems to be smaller (weaker) for both 30-mer peptides respect to the 26-mer.

[1] = test system: RSV monoclonal antibody resistant mutants (MARMs); assay: Microneutralization assay of RSV monoclonal antibody resistant mutants (MARMs); assay type: cell-based, respiratory syncytial virus
Description: Neutralization assays have also been described (see, for example, Beller et al., 1989, J Virol 63: 2941-2950, which is incorporated herein by reference in its entirety). Briefly RSV is incubated in the presence of serial dilutions of the agent(s) to be tested (e.g., F peptide) for an appropriate period of time. The mixtures of virus-agent(s) are then transferred to cell monolayers and incubated for an appropriate period of time. Cells are subsequently examined microscopically for cytopathology. Microscopic observations can be confirmed by staining with a glutaraldehyde-crystal violet solution. Neutralization can be expressed as the reciprocal of the highest agent dilution which inhibited more then 95% of the viral cytopathic effect present in the control sample (RSV and cells alone)
(§1) Hep-2 cells were infected in 24 well plates with RSV (in some cases, the B9320 RSV strain) in the presence of an anti-RSV monoclonal antibody, such as, for instance, Synagis® (palivizumab) and/or Numax™ (motavizumab) or MEDI-524. The virus was passaged two to three more times in the continued presence of the monoclonal antibody. […] The resulting plaques were purified two times in the presence of the monoclonal antibody. The virus was expanded to produce virus stock in either the presence or absence of the monoclonal antibody. Analysis of susceptibility of the viral mutants to neutralization by Synagis® (palivizumab) and Numax™ (motavizumab) was performed by a microneutralization assay and/or IFA. Finally, the sequence of the mutant F protein was determined by standard methods. […] Antibody contact with residues 262, 268 and 272 appear important.

RSV B9320 strain mutants = assay: Microneutralization assay of RSV B9320 strain F protein mutants; assay type: cell-based, respiratory syncytial virus
Excerpt: as §1

RSV F protein = assay: Biacore kinetic analysis, Numax reference standard; assay type: binding, respiratory syncytial virus
Excerpt: BIAcore analysis can measure the kinetic interactions of anti-RSV antibodies with RSV F peptides by surface plasmon resonance using a BIAcore 1000, 2000, or 3000 instrument (Biacore, Uppsala, Sweden). Purified recombinant, C-terminally truncated F protein was covalently coupled to a (1-ethyl-3-[3-dimethylaminopropyl]carbodiimide hydrochloride)/N-hydroxysuccinimide-activated CM5 sensor chip at a low protein density (see Johnsson et al. (1991) Anal. Biochem. 198, 268-277). The unreacted active ester groups were blocked with 1 M ethanolamine. For use as a reference, when the BIAcore 2000 or 3000 instrument was used, a blank surface, containing no antigen, was prepared under identical immobilization conditions. To minimize binding variations caused by different lots of F proteins, most of the antibodies were measured against the same lot of F protein. In several cases when different lots of F proteins were used, their binding to an anti-RSV antibody was used as a reference to make sure that these lots had similar binding characteristics to the lot that is used mainly. A serial 2-fold dilution series of purified antibodies, ranging from 0.2 to 100 nm in HBS/Tween 20 buffer (BIAcore), was injected over the F-protein and reference cell surfaces, which were connected in series. In each measurement, the residual antibody was removed from the sensor chip by a brief pulse of 100 mM HCl. The binding curves were globally fitted to a 1:1 Langmuir binding model using the BIAevaluation program. This algorithm calculates both kon and koff. The apparent equilibrium dissociation constant, Kd, was deduced as the ratio of the two rate constants, koff/kon.

[2] = K272E, or double mutation N262Y + K272Q
[3] = MARM 45, K272Q, selection Numax
[4] = MARM 49-B12, K272N, selection Numax
[5] = MARM 63-B6, N268L + K272I, selection Numax
[6] = MARM 63-H2, K272I, selection Numax
[7] = MARM 65-B10, N262Y + K272Q, selection Numax
[8] = MARM 69-C8, K272E, selection Numax
[9] = MARM #10, K272E + N276Y, selection A4b4
[10] = MARM #13, N262K + K272Q, selection Synagis then A4b4
[11] = MARM B1, K272N, selection Synagis
[12] = MARM B2, K272M, selection Synagis
[13] = MARM B7, K272T, selection Synagis
[14] = MARM B9, K272Q, selection Synagis
[15] = MARM NuMARM3, K272E, selection Numax
[16] = all other mutations indicated at position 272
[17] = K272N, K272Q or K272I, or double N268L + K272I

Sequence of Numax™ (as listed by the source, one chain of several): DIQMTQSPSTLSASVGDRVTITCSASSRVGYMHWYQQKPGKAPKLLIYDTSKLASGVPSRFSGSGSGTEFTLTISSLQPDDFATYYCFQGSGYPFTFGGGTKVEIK

Question: “NSELLSLINDMPITNDQKKLMSNN(X-orn)C [SEQ ID NO: 24]” was tested. Which Kd (Numax™) did it give?
Answer: 2.29 nM

Question: And the ka (Numax™)?
Answer: 1.06E+05

Question: And the kd (Numax™)?
Answer: 2.42E−04

Question: And the “Ka (association constant)” value (MEDI-524 Fab)?
Answer: 1.3e+07 M⁻¹

Question: And the ΔHbinding (MEDI-524 Fab)?
Answer: -12.8 kcal/mol

Question: What about the ΔSbinding (MEDI-524 Fab) of the same molecule?
Answer: −11.4

Question: Which results are given for “NSELLSLIHDMPITNDQKKLMSNNVQIVRQ [SEQ ID NO: 25]”?
Answer: Kd (Numax™): 7.23 nM and 5.44 nM; ka (Numax™): 2.50E+05 and 3.62E+05; kd (Numax™): 1.81E−03 and 1.97E−03; Ka (association constant) (MEDI-524 Fab): 6.5e+06 M⁻¹; ΔHbinding (MEDI-524 Fab): -10.4 kcal/mol; ΔSbinding (MEDI-524 Fab): −4.7

Question: How did the “Neutralization of RSV mutant” value [1, 2] turn out when “Synagis ®: humanized RSV monoclonal antibody directed against the F glycoprotein of RSV [reference compound]” was run?
Answer: longer neutralized RSV

Question: What about the “Neutraliz by antibody?” value [1, 3] of the same molecule?
Answer: No

Question: And the “Neutraliz by antibody?” value [1, 4]?
Answer: No

Question: What about the “Neutraliz by antibody?” value [1, 5] of the same molecule?
Answer: No

Question: And the “Neutraliz by antibody?” value [1, 6]?
Answer: No

Question: And the “Neutraliz by antibody?” value [1, 7]?
Answer: No

Question: What about the “Neutraliz by antibody?” value [1, 8] of the same molecule?
Answer: No

Question: And the “Neutraliz by antibody?” value ([1]; MARM #6, K272E, selection A4b4)?
Answer: No

Question: And the “Neutraliz by antibody?” value [1, 9]?
Answer: No

Question: What about the “Neutraliz by antibody?” value [1, 10] of the same molecule?
Answer: No

Question: What about the “Neutraliz by antibody?” value [1, 11] of the same molecule?
Answer: No

Question: What about the “Neutraliz by antibody?” value [1, 12] of the same molecule?
Answer: No

Question: And the “Neutraliz by antibody?” value [1, 13]?
Answer: No

Question: What about the “Neutraliz by antibody?” value [1, 14] of the same molecule?
Answer: No

Question: What about the “Neutraliz by antibody?” value [1, 15] of the same molecule?
Answer: No

Question: And the “Neutralization of RSV mutant” value [1, 16]?
Answer: eliminate the ability

Question: What about the “Neutralization of RSV mutant” value (RSV B9320 strain mutants; [17]) of the same molecule?
Answer: lost its ability to neutralize RSV

Question: And the “Neutralization of RSV mutant” value (RSV B9320 strain mutants; double mutation K272Q + N262K)?
Answer: lost their ability to neutralize

Question: Which results are given for “STYMLTNSELLSLIHDMPITNDQKKLMSNN [SEQ ID NO: 26]”?
Answer: Kd (Numax™): 22.7 nM; ka (Numax™): 2.43E+05; kd (Numax™): 5.52E−03; Ka (association constant) (MEDI-524 Fab): 7.1e+06 M⁻¹; ΔHbinding (MEDI-524 Fab): -11.4 kcal/mol; ΔSbinding (MEDI-524 Fab): −8.1

Question: “NSELLSLINDMPITNDQKKLMSNNC [SEQ ID NO: 27]” was tested. Which Kd (Numax™) did it give?
Answer: 20.4 nM

Question: And the ka (Numax™)?
Answer: 2.70E+05

Question: What about the kd (Numax™) of the same molecule?
Answer: 5.50E−03

B1: Numax ™: enhanced potency RSV-specific monoclonal antibody derived by in vitro affinity maturation of palivizumab (antibody, listed as Chimaera sp., V domains shown)
VH: QVTLRESGPALVKPTQTLTLTCTFSGFSLSTAGMSVGWIRQPPGKALEWLADIWWDDKKHYNPSLKDRLTISKDTSKNQVVLKVTNMDPADTATYYCARDMIFNFYFDVWGQGTTVTVSS
VL: DIQMTQSPSTLSASVGDRVTITCSASSRVGYMHWYQQKPGKAPKLLIYDTFFLDSGVPSRFSGSGSGTEFTLTISSLQPDDFATYYCFQGSGYPFTFGGGTKVEIK
modifications: (1)..(120) Humanized VH domain antibody sequence; (1)..(106) Humanized VL domain antibody sequence
Question: What does the source list for B1?
Answer: Neutralization of RSV mutant [1, 2]: longer neutralized RSV; Neutraliz by antibody? [1, 3]: Yes at higher; Neutraliz by antibody? [1, 4]: Yes at higher; Neutraliz by antibody? [1, 5]: Yes at higher; Neutraliz by antibody? [1, 6]: Yes at higher; Neutraliz by antibody? [1, 7]: No; Neutraliz by antibody? [1, 8]: No; Neutraliz by antibody? ([1]; MARM #6, K272E, selection A4b4): No; Neutraliz by antibody? [1, 9]: No; Neutraliz by antibody? [1, 10]: No; Neutraliz by antibody? [1, 11]: Yes; Neutraliz by antibody? [1, 12]: Yes; Neutraliz by antibody? [1, 13]: Yes; Neutraliz by antibody? [1, 14]: Yes; Neutraliz by antibody? [1, 15]: No; Neutralization of RSV mutant [1, 16]: retain its ability to neutralize; Kd (RSV F protein): 0.004 nM; ka (RSV F protein): 4.70E+05; kd (RSV F protein): 1.88E−06; Neutralization of RSV mutant (RSV B9320 strain mutants; [17]): retain its ability to neutralize RSV at higher concentration; Neutralization of RSV mutant (RSV B9320 strain mutants; double mutation K272Q + N262K): lost their ability to neutralize; Neutralization of RSV mutant (RSV B9320 strain mutants; single mutant K272Q): did not knock out
